In paper PMC10140010 (Investigational New Drugs, 2023):
Several values for one entry are separate records, joined by “and”; a condition that tells them apart may be missing. Identical values can stand only once.

How the values were obtained:
OAT3 = experiment: Uptake substrate investigation in HEK293 cells expressing transporter; conditions: ATV 1 μM, no inhibitor, OAT3 pre-test
OATP1B3 = experiment: as above
OAT1 = experiment: as above; conditions: ATV 1 μM, no inhibitor, OAT1 pre-test
ALK = conditions: cited from earlier work
[1] = tested on: LU-01-0015 (HIP-ALK) patient derived lung-tumor xenografts; experiment: LU-01-0015 patient-derived xenograft model (tumor volume, body weight); type: in vivo, BALB/c nude mice; conditions: LU-01-0015 and NCI-H3122 xenograft models, all P < 0.05
Experimental: Female BALB/c nude mice (4–6 weeks old) were provided by Shanghai Sipple-Bikai Laboratory Animal Co., Ltd. and Beijing Vital River Laboratory Animal Technology Co., Ltd. The mice were housed in a specific pathogen-free environment under a 12 h light/dark cycle, and had free access to sterile animal feed and water.
PDX and CDX models were used for in vivo studies. Patient-derived tumors tissues were divided into about 30 mm^3 and transplanted into the right dorsal subcutis. Treatment began when the tumor size reached to 200 mm^3. The mice were randomly assignied into the corresponding dosing groups (9 mice in each group). Drugs were deliverd via daily oral for 4 weeks. Tumor size was measured periodically using a digital caliper (Cal Pro, Sylvac, Switzerland), and tumor volume was calculated as 0.5 × length × width^2. For more detailed information, please refer to Supplementary materials. All procedures and protocols of xenograft models were approved by the Institutional Animal Care and Use Committee of WuXi AppTec.
Patient-derived tumor tissue was segmented into small pieces of approximately 20–30 mm^3 and transplanted subcutaneously into the right back of mice. When the tumor volume reached 150-200 mm^3, the mice were randomly divided into corresponding groups (9 mice in each group, female). Administered by gavage once daily for 4 weeks.

BCRP = biological target: T1, BCRP (Homo sapiens, UniProt Q9UNQ0); experiment: ABC efflux transporter inhibitor test on Caco-2 cells (E3S efflux)
T1 sequence (Q9UNQ0 1-655): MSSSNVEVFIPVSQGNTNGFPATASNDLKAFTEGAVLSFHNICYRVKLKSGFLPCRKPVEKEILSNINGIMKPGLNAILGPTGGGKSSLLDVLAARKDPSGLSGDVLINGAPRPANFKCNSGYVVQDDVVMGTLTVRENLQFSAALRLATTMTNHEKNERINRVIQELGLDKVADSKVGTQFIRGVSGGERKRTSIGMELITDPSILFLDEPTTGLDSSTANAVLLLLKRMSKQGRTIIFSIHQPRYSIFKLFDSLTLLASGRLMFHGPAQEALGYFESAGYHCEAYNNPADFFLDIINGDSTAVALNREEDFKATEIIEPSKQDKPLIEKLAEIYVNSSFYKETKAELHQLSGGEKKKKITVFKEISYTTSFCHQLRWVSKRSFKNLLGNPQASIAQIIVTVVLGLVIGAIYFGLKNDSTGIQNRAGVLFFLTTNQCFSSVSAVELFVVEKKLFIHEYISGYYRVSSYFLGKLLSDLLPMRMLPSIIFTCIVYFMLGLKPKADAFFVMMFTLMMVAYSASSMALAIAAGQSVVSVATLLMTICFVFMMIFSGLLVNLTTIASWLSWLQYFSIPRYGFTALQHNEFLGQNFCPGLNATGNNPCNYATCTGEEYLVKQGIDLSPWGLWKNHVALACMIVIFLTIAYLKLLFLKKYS

MATE1 [2] = biological target: T2, MATE1 (Homo sapiens, UniProt Q96FL8); experiment: Substrate investigation in HEK293 cells expressing transporter; type: in vitro ADME; parameters: No ESH8G27; host or cells: HEK293; conditions: MPP 10 μM, no inhibitor, pre-test
T2 sequence (Q96FL8 1-570): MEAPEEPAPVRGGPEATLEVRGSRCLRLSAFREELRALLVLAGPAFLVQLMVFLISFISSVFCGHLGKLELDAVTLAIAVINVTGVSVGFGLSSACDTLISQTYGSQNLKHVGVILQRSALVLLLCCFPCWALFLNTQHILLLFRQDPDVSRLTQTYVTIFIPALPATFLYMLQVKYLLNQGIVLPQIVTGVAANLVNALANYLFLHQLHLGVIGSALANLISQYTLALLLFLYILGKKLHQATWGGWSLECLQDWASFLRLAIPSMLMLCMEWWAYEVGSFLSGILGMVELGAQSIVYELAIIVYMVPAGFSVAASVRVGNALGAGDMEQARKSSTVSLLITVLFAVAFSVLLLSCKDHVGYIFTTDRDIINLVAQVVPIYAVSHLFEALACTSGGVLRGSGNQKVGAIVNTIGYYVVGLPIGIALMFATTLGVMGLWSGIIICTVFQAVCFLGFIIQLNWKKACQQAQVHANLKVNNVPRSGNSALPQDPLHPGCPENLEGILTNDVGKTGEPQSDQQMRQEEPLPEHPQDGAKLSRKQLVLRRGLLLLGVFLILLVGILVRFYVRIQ

OCT2 = biological target: T3, OCT2 (Homo sapiens, UniProt O15244); experiment: Uptake substrate investigation in HEK293 cells expressing transporter; type: in vitro ADME; conditions: 20 μM, Suppl. Table 11
T3 construct: No ESH9G27; host or cells: HEK293
T3 sequence (O15244 1-555): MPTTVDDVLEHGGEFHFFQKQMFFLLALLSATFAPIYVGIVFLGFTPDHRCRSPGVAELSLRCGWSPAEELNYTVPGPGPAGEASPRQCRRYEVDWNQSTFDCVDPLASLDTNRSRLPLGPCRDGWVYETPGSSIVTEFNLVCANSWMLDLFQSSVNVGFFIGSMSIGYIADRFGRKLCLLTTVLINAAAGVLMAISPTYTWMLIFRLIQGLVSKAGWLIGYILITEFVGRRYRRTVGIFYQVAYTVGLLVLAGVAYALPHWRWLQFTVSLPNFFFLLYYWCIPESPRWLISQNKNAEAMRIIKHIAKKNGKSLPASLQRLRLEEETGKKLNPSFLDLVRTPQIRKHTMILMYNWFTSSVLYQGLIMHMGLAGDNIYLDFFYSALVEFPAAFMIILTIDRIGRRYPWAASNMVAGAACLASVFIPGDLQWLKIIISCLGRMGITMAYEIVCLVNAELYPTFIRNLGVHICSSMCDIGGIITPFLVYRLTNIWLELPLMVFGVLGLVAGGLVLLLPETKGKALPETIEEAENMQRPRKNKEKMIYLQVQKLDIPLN

MATE1 [3] = biological target: T2, MATE1; experiment: Uptake inhibitor investigation in HEK293 cells expressing transporter; conditions: HEK293 cells expressing MATE1, probe MPP, 10 μM
[4] = MOCK293, ATV 1 μM, no inhibitor, OATP1B3 pre-test
[5] = OATP1B1-293 (so in the source), ATV 1 μM, no inhibitor, OATP1B3 pre-test

In the case of `CC(C)c1c(C(=O)Nc2ccccc2)c(-c2ccccc2)c(-c2ccc(F)cc2)n1CC[C@@H](O)C[C@@H](O)CC(=O)O` [ATV], the “Uptake transport activity, Mean” value (OAT3; MOCK293) was 75.16 pmol/mg protein/min, the “Uptake transport activity, Repeat 1 / Repeat 2” value (OAT3; MOCK293) was 59.57 pmol/mg protein/min and 90.74 pmol/mg protein/min and the “Uptake transport activity, Mean” value (OAT3; OATP1B1-293 (so in the source)) was 727.9 pmol/mg protein/min. For the same compound, the “Uptake transport activity, Repeat 1 / Repeat 2” value (OAT3; OATP1B1-293 (so in the source)) was 731.6 pmol/mg protein/min and 724.2 pmol/mg protein/min, the “Uptake transport activity, Net value” (OAT3; transporter cells vs MOCK293) was 652.7 pmol/mg protein/min and the “Uptake transport activity, Mean” value (OATP1B3; MOCK293 (OATP1B3 set), 1 μM, Suppl. Table 11) was 2.359 pmol/mg protein/min. The “Uptake transport activity, Mean” value (OATP1B3; [4]) was 3.030 pmol/mg protein/min, the “Uptake transport activity, Repeat 1 / Repeat 2” value (OATP1B3; [4]) was 2.810 pmol/mg protein/min and 3.250 pmol/mg protein/min and the “Uptake transport activity, Mean” value (OATP1B3; [5]) was 13.60 pmol/mg protein/min. The “Uptake transport activity, Repeat 1 / Repeat 2” value (OATP1B3; [5]) was 14.30 pmol/mg protein/min and 12.90 pmol/mg protein/min, the “Uptake transport activity, Net value” (OATP1B3; transporter cells vs MOCK293, ATV 1 μM, no inhibitor, OATP1B3 pre-test) was 10.6 pmol/mg protein/min and the “Uptake transport activity, Mean” value (OAT1; MOCK293) was 3.393 pmol/mg protein/min. The “Uptake transport activity, Repeat 1 / Repeat 2” value (OAT1; MOCK293) was 3.281 pmol/mg protein/min and 3.505 pmol/mg protein/min, the “Uptake transport activity, Mean” value (OAT1; OATP1B1-293 (so in the source)) was 31.40 pmol/mg protein/min and the “Uptake transport activity, Repeat 1 / Repeat 2” value (OAT1; OATP1B1-293 (so in the source)) was 36.42 pmol/mg protein/min and 26.39 pmol/mg protein/min. For the same compound, the “Uptake transport activity, Net value” (OAT1; transporter cells vs MOCK293) was 28.01 pmol/mg protein/min.

For `Cc1cc(Nc2ncc(Cl)c(Nc3ccccc3S(=O)(=O)C(C)C)n2)c(OC(C)C)cc1C1CCNCC1` [Ceritinib], the GI50 (ALK; in vitro enzymatic study against ALK, read-out: half-maximal growth inhibition concentration (GI50)) is listed as 0.15 nM, the “fold more potent against ALK than crizotinib” value (ALK; in vitro enzymatic study) is listed as ~ 20 fold and the “tumor growth inhibition” value [1] is listed as “able to inhibit tumor growth”.

In the case of `C[C@]12CC[C@@H]3c4ccc(OS(=O)(=O)O)cc4CC[C@H]3[C@@H]1CCC2=O` [E3S, reference compound], the “Exhaust Ratio Mean” value (BCRP; E3S 10 µM alone, Caco-2) was 20.54.

For `COc1cc2c(cc1OC)CN(CCc1ccc(NC(=O)c3cccc4c(=O)c5cccc(OC)c5[nH]c34)cc1)CC2` [Elacridar, reference compound], the inhibition at 10 µM (BCRP; human, Caco-2 cells, probe E3S (10 µM), Exhaust inhibition rate (%), substrate E3S 10 µM, inhibitor 10 µM) was 91.6% and the “Exhaust inhibition rate (%)” value (BCRP; substrate E3S 10 µM, inhibitor 10 µM) was 91.7%.

With `C[n+]1ccc(-c2ccccc2)cc1` [MPP] the “Uptake transport activity, Mean” value (MATE1 [2]; MATE1-293) was 1162.7 pmol/mg protein/min, the “Uptake transport activity, Repeat 1 / Repeat 2” value (MATE1 [2]; MATE1-293) was 942.2 pmol/mg protein/min and 1383.2 pmol/mg protein/min and the “Ratio of uptake transit activity” value (MATE1 [2]; MATE1-293 vs MOCK293) was 6.86. For the same compound, the “Uptake transport activity, Net value” (MATE1 [2]; MATE1-293 vs MOCK293) was 993.3 pmol/mg protein/min, the “Uptake transport activity, Mean” value (MATE1 [2]; MOCK293) was 169.4 pmol/mg protein/min and the “Uptake transport activity, Repeat 1 / Repeat 2” value (MATE1 [2]; MOCK293) was 163.5 pmol/mg protein/min and 175.3 pmol/mg protein/min.

With `CN(C)C(=N)N=C(N)N` [Metformin] the “Uptake transport activity, Mean” value (OCT2; MOCK293 (OCT2 set)) was 3.503 pmol/mg protein/min, the “Uptake transport activity, Mean” value (OCT2; OCT2-293) was 82.72 pmol/mg protein/min and the “Ratio of uptake transit activity” value (OCT2; OCT2-293 vs MOCK293) was 23.61. The “Uptake transport activity, Net value” (OCT2; OCT2-293 vs MOCK293) was 79.21 pmol/mg protein/min.

For `CCc1nc(N)nc(N)c1-c1ccc(Cl)cc1` [Pyrimethamine], the inhibition at 2 μM (MATE1 [3]) was 123%.
